The text below walks through data of patent US11661437B2, “Steroid derivative regulators, method for preparing the same, and uses thereof” (priority 2018, dated 2023).

Series [1] in a line: Pharmacokinetic assay in Balb/c mice (plasma and brain tissue). In kind it is in vivo. The note with it: male, Balb/c, mouse, in vivo, po, 5 mg/kg; for AUC(0-t): Area under curve AUC0-t; for AUC(0-inf): Area under curve AUC0-∞; for half-life: Half-life t1/2; for MRT: Mean residence time MRT; for Cmax: Plasma concentration Cmax. As to the method: Balb/c mice were used as test animals. The pharmacokinetic behavior in mice (plasma and brain tissue) of the compounds of Example 2, Example 5, Example 7, Example 12, Example 18, Example 23, Example 26, Example 38, Example 41, Example 50, Example 51 and Example 66 orally administrated at a dose of 5 mg/kg was studied.
Each group had 24 male Balb/c mice. After an overnight fast, Balb/c mice were administrated p.o. with the test compound at an administration dose of 5 mg/kg and an administration volume of 10 mL/kg.
0.2 ml of blood was taken from the heart before administration and at 0, 0.5, 1, 2, 4, 6, 8 and 24 hours after administration. The samples were stored in EDTA-K2 tubes, and centrifuged for 6 minutes at 4° C., 6000 rpm to separate the plasma. The plasma samples were stored at −80° C. The mice were sacrificed with CO2, and the whole brain tissue was taken out, weighed, placed in a 2 mL centrifuge tube and stored at −80° C.
1) 160 μL of acetonitrile was added to 40 μL of the plasma sample for precipitation, and then the mixture was centrifuged for 5-20 minutes at 3500×g.
2) 90 μL of acetonitrile containing the internal standard (100 ng/mL) was added to 30 μL of the plasma and brain homogenate samples for precipitation, and then the mixture was centrifuged for 8 minutes at 13000 rpm.
3) 70 μL of the treated supernatant was taken and added to 70 μL of water, and mixed by vortex for 10 minutes. 20 μL of the mixture was taken to analyze the concentration of the test compound by LC/MS/MS. LC/MS/MS analysis instrument: AB Sciex API 4000 Qtrap.
2.6 Liquid Chromatography Analysis • Liquid chromatography condition: Shimadzu LC-20AD pump. • Chromatographic column: Agilent ZORBAX XDB-C18 (50×2.1 mm, 3.5 μm); Mobile phase: Eluent A was 0.1% formic acid in water, and Eluent B was acetonitrile. • Flow rate: 0.4 mL/min • Elution time: 0-4.0 minutes the eluent is as follows:
The main parameters of pharmacokinetics were calculated by WinNonlin 6.1.

The next series has as its system GABA-A receptor. The experiment in a line: 35S-TBPS binding assay on rat cerebral cortex cell membrane. Set-up: species or system Sprague-Dawley rat. As to conditions: 2 nM 35S-TBPS, GABA added, read-out: 35S-TBPS bindng test, IC50 on inhibiting the TBPS binding activity. As to the method: 1.2.1 Extraction of Cerebral Cortex Cell Membrane:
1. The cerebral cortex of male Sprague-Dawley rat was isolated.
2. A pre-chilled 0.32 M sucrose solution (one tablet of protease inhibitor was added per 100 ml) was added to the cerebral cortex (the volume of sucrose solution was 10 times the volume of the cerebral cortex). The mixture was crushed with a 50 ml glass tissue homogenizer in batches and mixed well.
3. The mixture was centrifuged at 1500 g, 4° C. for 10 minutes, and the supernatant was collected.
4. The mixture was centrifuged at 20000 g, 4° C. for 30 minutes, and the supernatant was discarded.
5. The precipitate was resuspended with the pre-chilled phosphate buffer saline (PBS) (one tablet of protease inhibitor was added per 100 ml). An average of 4 ml of PBS was added per rat, and the mixture was mixed well with a glass tissue homogenizer.
6. The mixture was centrifuged at 10000 g, 4° C. for 10 minutes, and the supernatant was discarded.
7. Steps 5 and 6 were repeated three times.
8. Finally, the precipitate was resuspended with 4 volumes of PBS. The resulting solution was dispensed, frozen in liquid nitrogen, and stored at −80° C.
9. The protein concentration was measured by the bicinchoninic acid (BCA) method.
1.2.2 ^35S-TBPS Binding Assay
1. 230 μL of PBS was added to each well of a well plate with 1.1 ml volume.
2. 60 μL of the cerebral cortex cell membrane (5 μg/μL) solution was added to each well, and the mixture was mixed well.
3. The test compound (3 μL per well) was added, and the plate was incubated at 25° C. for 5 minutes. The DMSO concentration was 1%. The initial compound concentration was 1 NM, and a 3-fold dilution in gradient was carried out to obtain a total of 8 gradients and 2 replicates. 1% DMSO was used as a negative control, and 10 μM P026-2 was used as a positive control.
4. GABA was added at a final concentration of […], and incubated at 25° C. for 5 minutes. 1 mM GABA solution was formulated, and 1.5 μL of the solution was added to each well.
5. ^35S-TBPS was added at a final concentration of 2 nM. The concentration of isotope mother solution was 9.7 μM. After dilution with PBS for 100 times, 6 μL of the diluted isotope solution was added to each well.
6. The plate was incubated at 4° C. for 20 hours.
7. The FilterMate GF/C plate was pre-treated with 0.5% PEI, and incubated at 4° C. for 1 hour.
8. The FilterMate GF/C plate was washed with Universal Harvester twice, 50 ml PBS each time.
9. The reaction solution was transferred to the GF/C plate, and each well was washed 4 times with 900 μL PBS.
10. The washed GF/C plate was placed at 55° C. and dried for 10 minutes.
11. 40 μL of scintillation solution was added to each well, and the CPM value was read with TopCount.
1.2.3 Experimental Data Processing Method:
In the experiment, the CPM (counts per minute) value was read with TopCount. According to the readings of the High control (DMSO) and the Low control (10 μM of the positive compound) experimental groups, the % inhibition was calculated based on the following formula: % Inhibition=100×(CPMHigh control−CPMSample)/(CPMHigh control−CPMLow control)
The IC50 of the compound was calculated according to the following 4-parameter nonlinear logic formula: Y=Bottom+(Top−Bottom)/(1+10^((Log IC50−X)*Hill Slope)),
The effect of the compound of the present invention on the TBPS binding activity was determined by the above test, and the measured IC50 values are shown in Table 1.

The test system of the next series is ICR mice. The experiment in a line: In vivo pharmacodynamic test in the forced swimming model in mice. The note with it: 10 mpk p.o. The method, then:
The antidepressant effect of the compound was evaluated by the forced swimming model in mice.
Male ICR mice (25-35 g) were adapted in the test environment for 3 days before the forced swimming test.
According to the test design, the mice were randomly grouped on the day before the test according to body weight, with 12 mice in each group. Before the test, the compounds of each example were administrated intragastrically according to the Tmax thereof in the brain in mice pharmacokinetic test as follows:
1) Model group (0.5% CMC-Na+1% Tween 80 solution, p.o., 10 mL/kg);
2) Compounds of Example 2, Example 5, Example 7, Example 18, Example 23, Example 26 and Example 50 (10 mg/kg, p.o., 10 mL/kg).
When being administrated, the compounds of each example were suspended in 0.5% CMC-Na-1% Tween 80 solution to the desired concentration.
0.5-1 hour after administration, ICR mice were placed in a forced swimming device (transparent glass drum (water depth 18 cm, water temperature 25-26° C.), one mouse per tank) and forced to swim for 6 minutes. The forced swimming device recorded the floating time of the ICR mice during the entire 6 minutes, and the data of the latter four minutes were used for data analysis. The mice were taken out immediately after the swimming test, wiped dry and put back in their original cages.
Note: The criterion for determining the immobility time is that the mouse stops struggling in water and floats, and there are only slight limb movements to keep the head floating on the water.
3.4 Data Analysis Floating time percentage=100*floating time/240 s.

A word on the AUC(0-t): it is the area under the concentration-time curve up to a stated or last time point. A higher AUC(0-t) goes with more exposure. One may read the AUC(0-inf) as the area under the concentration-time curve extrapolated to infinity. As a reminder, the half-life is the time needed for the level to fall by half in the phase considered. As usually defined, the MRT is a mean duration of stay, worked out from the concentration-time curve. In general, Tmax refers to the time from dosing to the highest level. The Cmax is the peak of the concentration-time curve. A word on the IC50: it is the concentration that inhibits the measured activity by half. `C[C@@]1(O)CC[C@]2(F)C3CC[C@]4(C)[C@@H](C(=O)CNc5ccc(F)cc5F)CC[C@H]4[C@@H]3CC[C@@H]2C1` (stereo partly drawn) [Example 26, 2-((2,4-Difluorophenyl)amino)-1-((3R,5R,8S,10R,13S,14S,17S)-10-fluoro-3-hydroxy-3,13-dimethylhexadecahydro-1H-cyclopenta[a]phenanthren-17-yl)ethan-1-one]: in series [1], the “Area under curve AUC0-t” value came out at 722.9 ng·h/mL, the “Area under curve AUC0-∞” value came to 828.4 ng·h/mL, the “Half-life t1/2” value is reported as 2.06 h and the “Mean residence time MRT” value is given as 3.84 h. In series [1], the “Plasma concentration Cmax” value worked out at 172.3 ng/mL, the AUC(0-t) was 767 ng·h/mL, the area under the curve AUC(0-inf) was 772 ng·h/mL and the half-life is 154 min. In series [1], this compound had an MRT of 4.08 h and a Cmax of 232 ng/mL. Besides, the Tmax in series [1] (Peak time tmax) was determined as 30 min. In addition, the half-inhibitory concentration (IC50) in the series with GABA-A receptor worked out at 10.5 nM. The “Mean (immobility, %)” value in the series on ICR mice (floating time percentage = 100*floating time/240 s) came out at 53.46%. Besides, the “Mean (immobility, s)” value in the series with ICR mice (latter four minutes of 6 min swim) is reported as 128.30 s.
Consider `C[C@@]1(O)CC[C@@]2(F)[C@H](CC[C@H]3[C@@H]4CC[C@H](C(=O)COc5cnc(C(F)(F)F)nc5)[C@@]4(C)CC[C@@H]32)C1` [Example 66, 1-((3R,5R,8S,9S,10R,13S,14S,17S)-10-Fluoro-3-hydroxy-3,13-dimethylhexadecahydro-1H-cyclopenta[a]phenanthren-17-yl)-2-((2-(trifluoromethyl)pyrimidin-5-yl)oxy)ethan-1-one], for which, in series [1], the “Half-life t1/2” value is 3.60 h, the “Mean residence time MRT” value was determined as 5.01 h, the Tmax was determined as 60 min and the half-life is 263 min. Also, the mean residence time (MRT) in series [1] stood at 5.54 h. Further, in series [1] (Peak time tmax), the time to peak (Tmax) amounted to 30 min. In the series on GABA-A receptor, the half-maximal inhibitory concentration (IC50) amounted to 27 nM.
With `Cc1nnn(CC(=O)[C@H]2CC[C@H]3[C@@H]4CC[C@@H]5C[C@](C)(O)CC[C@]5(F)[C@H]4CC[C@]23C)n1` [Example 41, 1-((3R,5R,8S,9S,10R,13S,14S,17S)-10-Fluoro-3-hydroxy-3,13-dimethylhexadecahydro-1H-cyclopenta[a]phenanthren-17-yl)-2-(5-methyl-2H-tetrazol-2-yl)ethan-1-one], in series [1], the “Mean residence time MRT” value came to 0.91 h, the “Plasma concentration Cmax” value worked out at 625.3 ng/mL, the Tmax was 30 min and the mean residence time MRT was determined as 0.94 h. In addition, the peak level in series [1] (Cmax) was 1230 ng/mL. Further, the concentration for half-maximal inhibition (IC50) in the series with GABA-A receptor stood at 13.6 nM.
Regarding `Cc1nn(CC(=O)[C@H]2CC[C@H]3[C@@H]4CC[C@@H]5C[C@](C)(O)CC[C@]5(F)[C@H]4CC[C@]23C)cc1C#N` [Example 38, 1-(2-((3R,5R,8S,9S,10R,13S,14S,17S)-10-Fluoro-3-hydroxy-3,13-dimethylhexadecahydro-1H-cyclopenta[a]phenanthren-17-yl)-2-oxoethyl)-3-methyl-1H-pyrazole-4-carbonitrile], in series [1], the “Area under curve AUC0-t” value is 1216.1 ng·h/mL, the “Area under curve AUC0-∞” value came out at 1230.2 ng·h/mL, the “Half-life t1/2” value was determined as 1.14 h and the “Mean residence time MRT” value was 1.6 h. In addition, in series [1], the “Plasma concentration Cmax” value is 746.7 ng/mL, the area under the curve AUC(0-t) was found to be 1950 ng·h/mL, the area under the curve AUC(0-inf) stood at 1970 ng·h/mL and the half-life was 64.8 min. Further, in series [1], the MRT was 1.7 h and the highest level (Cmax) was 1110 ng/mL. In addition, the time of peak concentration (Tmax) in series [1] (Peak time tmax) was determined as 30 min. Moreover, the IC50 in the series with GABA-A receptor stood at 34 nM.
As to `C[C@@]1(O)CC[C@]2(F)C3CC[C@]4(C)[C@@H](C(=O)Cn5cc(C#N)c(Cl)n5)CC[C@H]4[C@@H]3CC[C@@H]2C1` (stereo partly drawn) [Example 51, 3-Chloro-1-(2-((3R,5R,8S,10R,13S,14S,17S)-10-fluoro-3-hydroxy-3,13-dimethylhexadecahydro-1H-cyclopenta[a]phenanthren-17-yl)-2-oxoethyl)-1H-pyrazole-4-carbonitrile], in series [1], the “Area under curve AUC0-t” value is 1625.9 ng·h/mL, the “Area under curve AUC0-∞” value is 1796.0 ng·h/mL, the “Half-life t1/2” value amounted to 2.19 h and the “Mean residence time MRT” value was 3.28 h. For the same compound, in series [1], the “Plasma concentration Cmax” value was found to be 512.3 ng/mL, the Tmax stood at 60 min, the area under the curve AUC(0-t) turned out to be 1960 ng·h/mL and the area under the curve AUC(0-inf) is 2080 ng·h/mL. Besides, in series [1], the half-life was 116 min, the mean residence time MRT amounted to 2.65 h and the Cmax amounted to 711 ng/mL. Moreover, in series [1] (Peak time tmax), the time to peak (Tmax) came out at 30 min. Further, the IC50 in the series with GABA-A receptor amounted to 14.3 nM.
For `C[C@@]1(O)CC[C@@]2(F)[C@H](CC[C@H]3[C@@H]4CC[C@H](C(=O)Cn5ncnn5)[C@@]4(C)CC[C@@H]32)C1` [Example 12, 1-((3R,5R,8S,9S,10R,13S,14S,17S)-10-Fluoro-3-hydroxy-3,13-dimethylhexadecahydro-1H-cyclopenta[a]phenanthren-17-yl)-2-(2H-tetrazol-2-yl)ethan-1-one], in series [1], the “Mean residence time MRT” value was found to be 0.73 h, the Tmax was found to be 30 min and the MRT came to 0.86 h. In the series on GABA-A receptor, the IC50 was 13.5 nM.
